# In US9624164B2, “Phenyl carbamate compounds for use in preventing or treating epilepsy” (Bio-Pharm Solutions Co., Ltd., priority 2011, dated 2017):
# Read-outs that look alike come from different tables or passages of the source.
# Tests used:
# Assay type in all cases: in vivo
# [1] = system: mice; experiment: Measurement of neurotoxicity (rotarod, Dunham and Miya); conditions: protective index
# Description: The measurement of neurotoxicity of the test compounds was conducted by the method of Dunham and Miya [Dunham, N. W. and Miya, T. S. 1957. A note on a simple apparatus for detecting neurological deficit in rats and mice. J. Am. Pharm. Assoc. (Baltimore) 46: 208-209]. In the method, motor abilities of the test animals can be determined by observing whether the test animals can walk without falling from a rotator, thereby determining the value of neurotoxicity of each compound. […] They were pre-trained on the rotarod (Rotarod; Columbus instrument, rota-max, USA) at 6 rpm for 5 min 24 hr prior to the test. The peak time was determined by administration test material's random dose for 0.5, 1, 2, 4 hour. […] The ratio of TD50 to ED50 (TD50/ED50) is called as a protective index, and useful as a parameter for comparison of pharmaceutical efficacy and neurotoxicity.
# [2] = system: male ICR mice; experiment: scPTZ test (subcutaneous pentylenetetrazol-induced clonic seizure), intraperitoneal administration, mice; conditions: ip
# Description: (§1) After Peak time (0.5, 1, 2 and 4 hr) from the administration, PTZ (Pentylenetetrazol) was administered subcutaneously in the concentration capable of inducing 97% intermittent convulsions (mice: 100˜110 mg/kg·bw, 100 ul/g, or rats: 90˜110 mg/kg·bw, 20 ul/g). If clonic seizure was not observed for at least 3 seconds in the PTZ administered animal, it can be considered that the test compound has anti-epilepsy activity.
# [3] = system: male ICR mice; experiment: MES test (maximal electroshock, corneal electrodes), oral administration, mice
# [4] = system: male ICR mice; experiment: scPTZ test (subcutaneous pentylenetetrazol-induced clonic seizure), intraperitoneal administration, mice; conditions: Mouse, ip, read-out: Duration of scPTZ test ED50
# [5] = system: male SD rats; experiment: MES test (maximal electroshock, corneal electrodes), oral administration, rats
# [6] = system: male SD rats; experiment: scPTZ test (subcutaneous pentylenetetrazol-induced clonic seizure), intraperitoneal administration, rats; conditions: ip; for ED50: Rat, read-out: Duration of scPTZ test ED50
# Description: as §1
# [7] = Mus musculus, mice, at peak time, read-out: ScPTZ test(ip) ED50
smiles,measurement,setting,value
"CC(OC(N)=O)C(O)c1ccccc1Cl (racemic) [Compound 3, 1-(2-chlorophenyl)-1-hydroxypropyl-2-carbamate]",PI (TD50/ED50 in MES),[1],12.0
same,ED50,[2]; [7],15.3 mg/kg
"CCC(OC(N)=O)C(O)c1ccccc1Cl (racemic) [Compound 8, 1-(2-chlorophenyl)-1-hydroxybutyl-2-carbamate]",responders at 100 mg/kg,"[3]; Mus musculus, injection amount 100 mg/kg, 4 mice, read-out: MES test(po) Protection %",100%
"CCCCC(OC(N)=O)C(O)c1ccccc1Cl (racemic) [Compound 14, 1-(2-chlorophenyl)-1-hydroxyhexyl-2-carbamate]",responders at 200 mg/kg,"[3]; Mus musculus, injection amount 200 mg/kg, 4 mice, read-out: MES test(po) Protection %",100%
"C[C@H](OC(N)=O)[C@@H](O)c1ccccc1Cl [Compound 1, 1-(2-chlorophenyl)-(S)-1-hydroxypropyl-(S)-2-carbamate]",ED50,[4]; 6 h,52.2 mg/kg
same,ED50,[4]; 8 h,80.7 mg/kg
same,ED50,[4]; 12 h,201 mg/kg
same,PI (TD50/ED50 in MES),[1],16.8
same,efficacy duration time,"[3]; MES test, mice",at least 12 hours
same,ED50,"[2]; Mouse, 0.5 h, read-out: Duration of scPTZ test ED50",17.3 mg/kg
same,ED50,"[2]; Mouse, 1 h, read-out: Duration of scPTZ test ED50",16.9 mg/kg
same,ED50,"[2]; Mouse, 2 h, read-out: Duration of scPTZ test ED50",15.8 mg/kg
same,ED50,"[2]; Mouse, 4 h, read-out: Duration of scPTZ test ED50",27.4 mg/kg
same,ED50,[2]; [7],15.8 mg/kg
same,efficacy duration time,"[2]; scPTZ test, mice",at least 12 hours
same,efficacy duration time,[5],at least 12 hours
same,ED50,[6]; 0.5 h,18.9 mg/kg
same,ED50,[6]; 1 h,14.5 mg/kg
same,ED50,[6]; 2 h,21 mg/kg
same,ED50,[6]; 4 h,31 mg/kg
same,ED50,[6]; 8 h,41.3 mg/kg
same,ED50,[6]; 12 h,76.7 mg/kg
same,efficacy duration time,"[6]; scPTZ test, rats",at least 12 hours
"C[C@@H](OC(N)=O)[C@H](O)c1ccccc1Cl [Compound 2, 1-(2-chlorophenyl)-(R)-1-hydroxypropyl-(R)-2-carbamate]",PI (TD50/ED50 in MES),[1],7.3
same,ED50,[2]; [7],38.8 mg/kg
"C[C@H](OC(N)=O)[C@H](O)c1ccccc1Cl [Compound 5, 1-(2-chlorophenyl)-(R)-1-hydroxypropyl-(S)-2-carbamate]",PI (TD50/ED50 in MES),[1],3.3
same,ED50,[2]; [7],15 mg/kg
"CC[C@H](OC(N)=O)[C@@H](O)c1ccccc1Cl [Compound 6, 1-(2-chlorophenyl)-(S)-1-hydroxybutyl-(S)-2-carbamate]",ED50,[2]; [7],17.9 mg/kg
"C[C@H](OC(N)=O)[C@@H](O)c1c(Cl)cccc1Cl [Compound 37, 1-(2,6-dichlorophenyl)-(S)-1-hydroxypropyl-(S)-2-carbamate]",PI (TD50/ED50 in MES),[1],5.1
same,ED50,[2]; [7],25.7 mg/kg
"CC[C@H](OC(N)=O)[C@@H](O)c1ccc(Cl)cc1Cl [Compound 39, 1-(2,4-dichlorophenyl)-(S)-1-hydroxybutyl-(S)-2-carbamate]",ED50,[2]; [7],24.3 mg/kg
"C[C@H](OC(N)=O)[C@@H](O)c1ccccc1F [Compound 63, 1-(2-fluorophenyl)-(S)-1-hydroxypropyl-(S)-2-carbamate]",responders at 50 mg/kg,"[3]; Mus musculus, injection amount 50 mg/kg, 4 mice, read-out: MES test(po) Protection %",100%
